In patent US5032398A, “Selective modification of the catalytic subunit of pertussis toxin” (priority 1986, dated 1991):

Legend:
pertussis toxin [1] = molecular target: T1, pertussis toxin (Bordetella pertussis, UniProt P04977); assay: Inactivation of NADase activity by iodoacetate after different activator combinations (Example Seven); assay type: biochemical
Method: Pertussis toxin was incubated first at 37° C. for fifteen minutes in […] buffer A (100 mM Tris-HCl, pH 8.0 with 1 mM NaEDTA). EDTA was added to chelate divalent cations, which may promote oxidation of free --SH groups. During this incubation, DTT and ATP were present in concentrations of 1 mM each, and CHAPS was present in a concentration of 1 weight percent. Labelled iodoacetate was then added ([…], 12.5 mM), and the tube incubated on ice for twenty hours. The sample was then mixed with sodium dodecylsulfate and β-mercaptoethanol, heated at 95° C. for one minute, and electrophoresed. After electrophoresis, the gel was fixed, treated with Fluorohance (Research Products International), dried and used to expose x-ray film.
Pertussis toxin was incubated at 37° C. for fifteen minutes as described in Example Six, and then a second incubation was begun by adding 10 μl buffer A with or without 12.5 mM iodoacetate, mixing the contents of the tube and lowering the temperature to 30° C. After fifteen minutes, the tubes were shifted to an ice bath for ten minutes. A third incubation was then begun by adding 10 μl buffer A containing 200 mM DTT to those tubes containing iodoacetate to scavenge the iodoacetate. To those tubes not containing iodoacetate during the second incubation, a mixture of 200 mM DTT and 12.5 mM iodoacetate in buffer A, previously incubated for an hour on ice, was added. The third incubation was continued for one hour on ice.
The contents of each tube were then assayed for NADase activity by adding 40 μl of a reaction mix consisting of buffer A containing carbon-14 labelled NAD (final concentration in the 100 μl final volume was 25 μM), and 50 mM sodium chloride. Different reaction mixtures with various additions were used, so that in all tubes the final concentration of ATP was 1 mM and CHAPS was 1 weight percent. The assay was conducted at 37° C. for sixty minutes, and the released labelled nicotinimide was isolated and counted. The iced controls were formed by incubating pertussis toxin (1 μg) on ice in 10 mM sodium phosphate (pH 7) and 50 mM sodium chloride during the first three incubations. […] The first three incubations were done under a nitrogen atmosphere using degassed conditions, and the second and third incubations were done under subdued light.

pertussis toxin [2] = molecular target: T1, pertussis toxin; assay: NADase activity of pertussis toxin after activation and treatment with alkylating reagent (Example One); assay type: biochemical
From the text: The ADP-ribosylating activity of the pertussis toxin can be detected as a nicotinamide-adenine dinucleotide-glycohydrolase (NADase) activity, which can be conveniently assayed through the use of [nicotinamide-^14 C] or [nicotinamide-^3 H] NAD. NAD consists of ADP-ribose linked to nicotinimide, and thus the extent of the release of ADP-ribose from NAD is an indication of the ability of the toxin to cause ill effects. In conducting this assay of the hydrolysis of labelled NAD, ion-exchange column chromatography was employed to resolve the product from the substrate according to the method described by Moss et al., J. Biol. Chem. 258, 11879 (1983) which is incorporated herein by reference. However, several modifications to this method were employed. First, a QAE-Sephadex resin was employed, as was a [nicotinamide-^3 H] NAD. Specifically, a 2 ml QAE-Sephadex column was first washed with 10 ml 1NHCl, followed by 10 ml H2 O, 20 ml 0.5M Tris-HCl pH 7.0, and 40 ml H2 O. [^3 H] NAD was applied, and the column washed with 20 ml water to elute impurities. Purified [^3 H] NAD was eluted with 0.25M NaCl, and stored in small aliquots at -70° C. The purified [^3 H] NAD contributed 50 mM NaCl (final concentration) to the NADase assays.
Before the end of the reaction, 2 ml QAE-Sephadex columns were treated with 10 ml 0.1M imidazole-HCl pH 7.0 with 1.0M NaCl, followed by 40 ml water. The NADase reaction (in 100 μl) was terminated by adding 0.85 ml of ice-cold water, and the entire 0.95 ml was pipetted into a treated QAE column. The labelled nicotinamide was then eluted with 3 ml of water directly into a scintillation vial and counted. The absorbed labelled NAD was then eluted into radioactive waste with 10 ml 0.1M imidazole-HCl pH 7.0 with 1.0M NaCl, and the column stored partially immersed in a water bath until the next assay.
In order to determine if any active toxin remained after the inactivation, a large excess of sulfhydryl reductant was added to each tube to scavenge unreacted sulfhydryl reagent. The NADase activity of the preparation was then measured. The three incubations were performed under a nitrogen atmosphere using degassed solutions to prevent oxidation of sulfhydryl groups which would prevent the sulfhydryl reagent from modifying the sulfhydryl group.
The pertussis toxin in the Examples comprised 50 μg of the toxin in a 500 μl solution of 10 mM sodium phosphate-50 mM sodium chloride-water solution having a pH of 7. The enzymatic activity was detected as the hydrolysis of nicotinamide labelled NAD and ion-exchange column chromatography to resolve the product from the substrate. Unless otherwise noted, the assay was initiated by adding 0.5 to 2.5 μg of the toxin to a reaction mixture for a final volume of 100 μl. The NADase reaction was terminated by adding 0.85 ml of ice-cold water. The entire 0.95 ml was then pipetted into a QAE-Sephadex column (chloride form) and the labelled nicotinamide eluted with 3 ml of water directly into a scintillation vial and counted. […] One unit of NADase activity is defined as 1 pmol NAD hydrolyzed per hour.
One-half microgram of pertussis toxin was incubated for thirty minutes at […] in 100 mM Tris-HCl (pH 8.0), with or without activators, in a volume of 50 μl. When present, ATP and pyrophosphate were present in a concentration of 2 mM, CHAPS at 2 weight percent, and DTT in a concentration of either 2 mM (trial 1) or 1 mM (trial 2). 10 μl of water with or without iodoacetate or N-ethylmaleimide was then added and a second incubation conducted at 30° C. for either thirty minutes (trial 1) or fifteen minutes (trial 2). After this incubation, 10 μl of 200 mM DTT was added to each tube, and the tubes were incubated for thirty (trial 1) or sixty minutes (trial 2) on ice to scavenge the iodoacetate or N-ethylmaleimide.

T1 sequence (P04977 35-269 limits assumed): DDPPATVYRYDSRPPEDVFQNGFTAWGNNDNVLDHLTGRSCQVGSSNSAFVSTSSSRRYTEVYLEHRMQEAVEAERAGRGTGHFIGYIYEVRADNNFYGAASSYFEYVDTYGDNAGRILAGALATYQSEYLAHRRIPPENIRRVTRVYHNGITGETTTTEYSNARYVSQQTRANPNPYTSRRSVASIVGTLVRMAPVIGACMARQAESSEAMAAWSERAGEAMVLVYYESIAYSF

SMILES: O=C(O)CI [iodoacetate]
- Time to inactivate toxin (pertussis toxin [1]; at 30° C.): within about fifteen minutes
- Percent NADase activity relative to no addition to second incubation (pertussis toxin [1]; first incubation: ATP): 153
- Percent NADase activity relative to no addition to second incubation (pertussis toxin [1]; first incubation: ATP, CHAPS): 80
- Percent NADase activity relative to no addition to second incubation (pertussis toxin [1]; first incubation: ATP, DTT): 107
- Percent NADase activity relative to no addition to second incubation (pertussis toxin [1]; first incubation: ATP, DTT, CHAPS): 14
- Percent NADase activity relative to no addition to second incubation (pertussis toxin [1]; first incubation: CHAPS): 108
- Percent NADase activity relative to no addition to second incubation (pertussis toxin [1]; first incubation: DTT): 123
- Percent NADase activity relative to no addition to second incubation (pertussis toxin [1]; first incubation: DTT, CHAPS): 84
- Percent NADase activity relative to no addition to second incubation (pertussis toxin [1]; first incubation: none): 87
- NADase activity (%) of the activity of toxin treated the same way without alkylating agent (pertussis toxin [2]; first incubation: DTT 1 mM, CHAPS 2%, ATP 2 mM, Experiment #2, second incubation 15 min at 30° C, 25 μM NAD): 3%
- NADase activity (%) of the activity of toxin treated the same way without alkylating agent (pertussis toxin [2]; first incubation: DTT 1 mM, CHAPS 2%, pyrophosphate 2 mM, Experiment #2, second incubation 15 min at 30° C, 25 μM NAD): 31%
- NADase activity (%) of the activity of toxin treated the same way without alkylating agent (pertussis toxin [2]; first incubation: DTT 2 mM, CHAPS 2%, ATP 2 mM, Experiment #1, second incubation 30 min at 30° C, 125 μM NAD): 4%
- NADase activity (%) of the activity of toxin treated the same way without alkylating agent (pertussis toxin [2]; first incubation: DTT 2 mM, CHAPS 2%, pyrophosphate 2 mM, Experiment #1, second incubation 30 min at 30° C, 125 μM NAD): 28%
- NADase activity (%) of the activity of toxin treated the same way without alkylating agent (pertussis toxin [2]; first incubation: none, Experiment #1, second incubation 30 min at 30° C, 125 μM NAD): 62%
- NADase activity (%) of the activity of toxin treated the same way without alkylating agent (pertussis toxin [2]; first incubation: none, Experiment #2, second incubation 15 min at 30° C, 25 μM NAD): 87%
